Reference: the NIST ThermoML archive (doi:10.1016/j.jct.2007.06.020)
Numbers after ± are expanded uncertainties.

test: molar enthalpy of vaporization or sublimation; settings: 298.15 K; Liquid; Calvet microcalorimetry

For `N#CCc1cccs1` [2-thiopheneacetonitrile], which molar enthalpy is on record?
The molar enthalpy was 60.5 ± 2.6 kJ/mol.

With `N#CCc1ccsc1` [3-thiopheneacetonitrile] as the compound, how does the molar enthalpy read?
Its molar enthalpy is 61.1 ± 2.6 kJ/mol.

Which molar enthalpy does the source give for `N#Cc1ccsc1` [3-thiophenecarbonitrile] here?
Its molar enthalpy is 51.6 ± 3.8 kJ/mol.

Which molar enthalpy does the source give for `Cc1ccsc1C#N` [3-methylthiophene-2-carbonitrile] here?
Its molar enthalpy is 54.4 ± 2.4 kJ/mol.

Which molar enthalpy does the source give for `N#Cc1cccs1` [2-cyanothiophene] here?
Its molar enthalpy is 49.5 ± 2.2 kJ/mol.
